Reference: patent US10414769B2, “5,8-dimethyl-9-phenyl-5,8-dihydro-6H-pyrazolo[3,4-h]quinazolin-2-yl)-(1H-pyrazol-3-yl)-amines as IGF-1R/IR inhibitors” (Boehringer Ingelheim International GmbH, priority 2015, dated 2019)

Key:
[1] = test system: HCT 116 (colorectal carcinoma) cells; assay: Cell proliferation assay HCT 116 (Alamar Blue); format: cell-based; conditions: Homo sapiens; anti-proliferative effect, HCT 116 cells (negative control line), 72 h
Method: Cell Proliferation Assays
Compounds were tested for their anti-proliferative effects in the TC-71 (EWING'S sarcoma) and HCT 116 (colorectal carcinoma) cancer cell lines in vitro. Published scientific data has described that interference with the IGF-1R signaling pathway reduces the proliferation of TC-71 cells (Manara et al, 2007). Therefore TC-71 cells served as a positive control cell line for monitoring the activity of compounds against IGF-1R-mediated cell proliferation. […] Therefore the HCT 116 cell line served as a negative control.
2000 TC-71 cells or 1000 HCT 116 cells were seeded per well in 180 μL IMDM+10% foetal calf serum (FCS)+penicillin/streptomycin into 96-well microtitre plates. The plates were placed in a cell culture incubator (37° C. in a humidified atmosphere of […]/5% CO2) overnight. The following day, serial dilutions of compounds, prepared in duplicates, were transferred onto the cell layers (controls without compound). The cells were cultivated for a further 72 h in the cell culture incubator. 20 μL of Alamar Blue™ (Serotec Ltd, Dusseldorf, Germany) was added to each well and the plates incubated for 7 h in the cell culture incubator. Fluorescence (extinction wavelength of 544 nm and emission at 590 nm) was then measured and the normalized data fitted by iterative calculation with a sigmoidal curve analysis program (Graph Pad Prism) with a variable Hill slope to determine the EC50 values.

EPHB2 = target: T1, EPHB2 (Homo sapiens, UniProt P29323); assay: Z'-LYTE kinase selectivity assay EPHB2; format: biochemical
T1 construct: purchased Life Technologies PV 3625
T1 sequence (P29323 19-1055): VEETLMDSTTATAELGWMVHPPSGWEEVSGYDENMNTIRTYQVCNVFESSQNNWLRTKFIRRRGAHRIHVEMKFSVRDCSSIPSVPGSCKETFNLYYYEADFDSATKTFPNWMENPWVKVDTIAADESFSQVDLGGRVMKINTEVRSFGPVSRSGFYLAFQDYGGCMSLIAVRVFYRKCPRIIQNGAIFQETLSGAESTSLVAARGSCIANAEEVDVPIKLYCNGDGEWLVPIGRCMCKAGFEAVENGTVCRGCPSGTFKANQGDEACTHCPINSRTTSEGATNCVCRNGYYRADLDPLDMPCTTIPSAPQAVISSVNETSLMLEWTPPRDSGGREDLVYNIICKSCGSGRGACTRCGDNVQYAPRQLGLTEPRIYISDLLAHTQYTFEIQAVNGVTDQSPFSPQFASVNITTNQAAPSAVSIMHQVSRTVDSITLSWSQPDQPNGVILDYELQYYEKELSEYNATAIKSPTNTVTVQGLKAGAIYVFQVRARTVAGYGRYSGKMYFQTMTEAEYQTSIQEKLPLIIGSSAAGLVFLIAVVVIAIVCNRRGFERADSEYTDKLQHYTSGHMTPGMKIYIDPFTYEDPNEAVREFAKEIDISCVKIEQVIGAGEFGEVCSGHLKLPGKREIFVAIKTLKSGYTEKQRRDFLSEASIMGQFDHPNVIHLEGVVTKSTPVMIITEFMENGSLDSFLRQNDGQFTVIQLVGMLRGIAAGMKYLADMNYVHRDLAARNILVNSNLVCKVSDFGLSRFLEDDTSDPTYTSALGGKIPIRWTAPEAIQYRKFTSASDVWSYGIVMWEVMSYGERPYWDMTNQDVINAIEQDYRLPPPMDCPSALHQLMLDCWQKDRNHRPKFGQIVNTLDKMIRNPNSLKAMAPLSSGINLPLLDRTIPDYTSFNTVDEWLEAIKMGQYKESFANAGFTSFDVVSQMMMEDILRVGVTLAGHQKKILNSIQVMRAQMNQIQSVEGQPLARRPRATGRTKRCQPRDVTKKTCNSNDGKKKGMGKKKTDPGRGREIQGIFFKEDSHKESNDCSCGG
Description: (§1) In order to compare the kinase selectivity of compounds (I) according to the invention with known prior art compounds the commercially provided SelectScreen® Kinase Profiling Service (Z′-LYTE®) was used (Life Technologies GmbH, Darmstadt, Germany) to investigate the ability of the compounds to inhibit a number of different, representatively selected human kinases. Further details regarding this service are available on the Life Technologies website at
(§2) The Z′-LYTE® biochemical assay employs a fluorescence-based, coupled-enzyme format and is based on the differential sensitivity of phosphorylated and non-phosphorylated peptides to proteolytic cleavage. The peptide substrate is labeled with two fluorophores—one at each end—that make up a FRET pair.
(§3) In the primary reaction, the kinase transfers the gamma-phosphate of ATP to a single tyrosine, serine or threonine residue in a synthetic FRET-peptide. In the secondary reaction, a site-specific protease recognizes and cleaves non-phosphorylated FRET-peptides. Phosphorylation of FRET-peptides suppresses cleavage by the Development Reagent. Cleavage disrupts FRET between the donor (i.e., coumarin) and acceptor (i.e., fluorescein) fluorophores on the FRET-peptide, whereas uncleaved, phosphorylated FRET-peptides maintain FRET. A ratiometric method, which calculates the ratio (the Emission Ratio) of donor emission to acceptor emission after excitation of the donor fluorophore at 400 nm, is used to quantitate reaction progress, as shown in the equation below.
(§4) The Test Compounds are screened at 1 μM.
The 2×EPHB2 (# PV 3625)/Tyr 02 (Z′-LYTE® Kinase Assay Kit—Tyrosine 2 Peptide, # PV 3191) mixture is prepared in 50 mM HEPES pH 7.5, 0.01% BRIJ-35, 10 mM MgCl2, 1 mM EGTA. The final 10 μL Kinase Reaction consists of 0.55-36 ng EPHB2 and 2 μM Tyr 02 in 50 mM HEPES pH 7.5, 0.01% BRIJ-35, 10 mM MgCl2, 1 mM EGTA. After the 1 hour Kinase Reaction incubation, 5 μL of a 1:128 dilution of Development Reagent A is added.

MAP2K1 (MEK1) = target: T2, MAP2K1 (MEK1) (Homo sapiens, UniProt Q02750); assay: Z'-LYTE kinase selectivity assay MAP2K1; format: biochemical
T2 construct: purchased Life Technologies PV 3303
T2 sequence (Q02750 whole entry): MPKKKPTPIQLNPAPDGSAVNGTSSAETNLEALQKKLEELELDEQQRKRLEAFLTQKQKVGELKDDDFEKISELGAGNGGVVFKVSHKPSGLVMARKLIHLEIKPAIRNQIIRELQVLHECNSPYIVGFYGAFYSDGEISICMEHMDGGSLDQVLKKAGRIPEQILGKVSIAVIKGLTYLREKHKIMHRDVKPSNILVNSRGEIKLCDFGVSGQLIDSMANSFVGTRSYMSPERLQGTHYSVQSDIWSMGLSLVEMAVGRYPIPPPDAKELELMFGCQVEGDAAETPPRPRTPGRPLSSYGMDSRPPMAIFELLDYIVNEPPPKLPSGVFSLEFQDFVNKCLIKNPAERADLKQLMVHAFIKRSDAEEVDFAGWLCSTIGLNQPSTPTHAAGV
Description: as §1, §2, §3, §4
After the 1 hour Kinase Reaction incubation, 5 μL of a 1:1024 dilution of Development Reagent A is added.

EC50 [1] [nM]	inhibition at 1 µM (EPHB2) [%]	inhibition at 1 µM (MAP2K1 (MEK1)) [%]	SMILES
> 2500	73	36	C[C@@H]1Cc2nn(C)c(-c3ccccc3)c2-c2nc(Nc3ccn(CCN4CCN(CC5CCCO5)CC4)n3)ncc21 (stereo partly drawn) [Compound I-9]
2000	77	50	C[C@@H]1Cc2nn(C)c(-c3ccccc3)c2-c2nc(Nc3ccn(CCN4CCN(CC(C)(C)O)CC4)n3)ncc21 [Compound I-3]
> 2500	56	39	COCCN1CCN(CCn2ccc(Nc3ncc4c(n3)-c3c(nn(C)c3-c3ccccc3)C[C@H]4C)n2)CC1 [Compound I-11]
> 2500	62	48	C[C@@H]1Cc2nn(C)c(-c3ccccc3)c2-c2nc(Nc3ccn(CCN4CCN(CC(=O)OC5CCOCC5)CC4)n3)ncc21 [Compound I-8]
> 2500	64	34	C[C@@H]1Cc2nn(C)c(-c3ccccc3)c2-c2nc(Nc3ccn(CCN4CCN(C)CC4)n3)ncc21 [Compound I-1]
1840	82	40	CC(O)CN1CCN(CCn2ccc(Nc3ncc4c(n3)-c3c(nn(C)c3-c3ccccc3)C[C@H]4C)n2)CC1 (stereo partly drawn) [Compound I-7]
> 2500	68	58	C[C@@H]1Cc2nn(C)c(-c3ccccc3)c2-c2nc(Nc3ccn(CCN4CCOCC4)n3)ncc21 [Compound I-2]
